According to US20110059962A1, “TRANSCRIPTION FACTOR MODULATING COMPOUNDS AND METHODS OF USE THEREOF” (priority 2009, published 2011):

Key:
SlyA = target: T1, SlyA (Salmonella typhimurium, UniProt P40676); experiment: Inhibition of SlyA-DNA binding, cell-free chemiluminescence assay (specificity); set-up: species or system S. typhimurium enterica serovar Typhimurium
T1 construct: made in house; host or cells: E. coli
T1 sequence (P40676 1-144): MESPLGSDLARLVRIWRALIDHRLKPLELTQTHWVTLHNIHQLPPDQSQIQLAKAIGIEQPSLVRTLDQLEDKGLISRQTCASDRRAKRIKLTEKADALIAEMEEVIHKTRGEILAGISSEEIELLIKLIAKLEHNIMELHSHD

[1] = system: Y. pseudotuberculosis cytotoxicity toward J774 cells; experiment: microbe, parasite or virus in culture; settings: Yersinia pseudotuberculosis, J774, read-out: % Cytotoxicity
LcrF (VirF) = LcrF (VirF) (Yersinia pestis, UniProt P28808); experiment: biochemical; assay type: binding, Y. pseudotuberculosis
Sequence of LcrF (VirF) (P28808 whole entry, looked up): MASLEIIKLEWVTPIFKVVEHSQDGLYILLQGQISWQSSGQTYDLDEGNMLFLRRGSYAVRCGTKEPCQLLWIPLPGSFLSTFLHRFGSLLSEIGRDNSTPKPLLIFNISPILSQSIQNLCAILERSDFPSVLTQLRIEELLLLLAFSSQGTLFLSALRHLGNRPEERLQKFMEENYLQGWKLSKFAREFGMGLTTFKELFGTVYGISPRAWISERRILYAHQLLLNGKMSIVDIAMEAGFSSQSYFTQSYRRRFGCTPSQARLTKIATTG

[2] = system: P. aeruginosa cytotoxicity toward J774 cells; experiment: Inhibition of P. aeruginosa cytotoxicity toward J774 macrophage-like cells, whole cell LDH release assay (CytoTox 96); set-up: dose or concentration left out as unconfirmed; settings: Pseudomonas aeruginosa, J774, read-out: % Cytotoxicity
ExsA = target: T2, ExsA (Pseudomonas aeruginosa, UniProt P26993); experiment: Inhibition of ExsA-DNA binding, cell-free chemiluminescence assay; set-up: species or system P. aeruginosa
T2 construct: made in house
T2 sequence (P26993 1-278): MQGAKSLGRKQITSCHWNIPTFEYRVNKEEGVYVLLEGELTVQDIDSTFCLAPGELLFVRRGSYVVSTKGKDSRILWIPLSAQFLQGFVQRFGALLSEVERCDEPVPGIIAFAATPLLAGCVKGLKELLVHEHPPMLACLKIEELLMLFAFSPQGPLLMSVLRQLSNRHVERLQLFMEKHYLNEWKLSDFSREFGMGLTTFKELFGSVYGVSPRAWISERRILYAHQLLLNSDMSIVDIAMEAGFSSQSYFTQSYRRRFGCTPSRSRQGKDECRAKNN

[3] = system: pET-15b supercoiled plasmid DNA; experiment: Assay to detect direct DNA binding (UV fluorescence and agarose gel migration of plasmid DNA); settings: 100 μg/mL; 100 ng pET-15b plasmid, 30 minutes at room temperature
SoxS = target: T3, SoxS (Escherichia coli, UniProt P0A9E2); experiment: Inhibition of SoxS-DNA binding, cell-free chemiluminescence assay; set-up: species or system E. coli
T3 construct: made in house; host or cells: E. coli
T3 sequence (P0A9E2 1-107): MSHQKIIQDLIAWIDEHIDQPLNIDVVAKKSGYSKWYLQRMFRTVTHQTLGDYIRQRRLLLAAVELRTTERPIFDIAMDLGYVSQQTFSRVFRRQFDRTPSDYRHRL

Structure (SMILES): CC(=O)c1ccc(/C=C/C(=O)Nc2ccc(-c3nc4c(CC(=O)O)cc([N+](=O)[O-])cc4n3O)cc2)cn1 [Compound V, (2-{4-[(E)-3-(6-Acetyl-pyridin-3-yl)-acryloylamino]-phenyl}-1-hydroxy-6-nitro-1H-benzoimidazol-4-yl)-acetic acid]
- IC50 (SlyA): 25 to 50 µM
- activity at 50 µg/mL [1]: < 75%
- IC50 (LcrF (VirF)): < 10 µM
- activity [2]: < 75%
- IC50 (ExsA): < 10 µM

Structure (SMILES): CCOc1ccc(-c2nc3ccc(-c4nc5ccc(N6CCN(C)CC6)cc5[nH]4)cc3[nH]2)cc1 [Hoechst 33342]
- fluorescence under UV light and DNA migration on agarose gel [3]: bright fluorescence under UV light and a faint smear on the gel

Structure (SMILES): CC(=O)c1ccc(/C=C/C(=O)Nc2ccc(-c3nc4c(CC(=O)O)cc([N+](=O)[O-])cc4n3O)cc2)cc1 [Compound J, (2-{4-[(E)-3-(4-Acetyl-phenyl)-acryloylamino]-phenyl}-1-hydroxy-6-nitro-1H-benzoimidazol-4-yl)-acetic acid]
- IC50 (SoxS): < 10 µM
- IC50 (SlyA): 25 to 50 µM
- activity at 50 µg/mL [1]: < 75%
- IC50 (LcrF (VirF)): < 10 µM
- activity [2]: < 75%
- IC50 (ExsA): < 10 µM

Structure (SMILES): CSc1ccc(/C=C/C(=O)Nc2ccc(-c3nc4ccc(C#N)cc4n3O)cc2)cc1 [Compound D, (E)-N-[4-(6-Cyano-1-hydroxy-1H-benzoimidazol-2-yl)-phenyl]-3-(4-methylsulfanyl-phenyl)-acrylamide]
- IC50 (SoxS): 10 to 25 µM
- activity at 50 µg/mL [1]: 75 to 99%
- IC50 (LcrF (VirF)): 25 to 50 µM
- activity [2]: 75 to 99%
- IC50 (ExsA): < 10 µM
